According to US11596670B2, “Treatment of a disease of the gastrointestinal tract with IL-10 or an IL-10 agonist” (BIORA THERAPEUTICS, INC., priority 2017, dated 2023):

Tests used:
[1] = Tissue, plasma, rectal sample and GI content pharmacokinetics of tacrolimus, oral vs. intra-cecal ingestible device (Example 10); set-up: species or system Yorkshire-Cross farm swine; details: in vivo; for Cmax: female, Yorkshire-Cross, pig, IC capsule
Description: No further randomization procedure was employed.
Animals in Group 1 received an ingestible device containing 0.8 mL of vehicle solution (80% alcohol, 20% HCO-60). Animals in Group 2 received orally […] liquid formulation of tacrolimus at 4 mg/0.8 mL per animal (Prograf: 5 mg/mL). Animals in Group 3 received intra-cecally an ingestible device containing tacrolimus at 1 mg in 0.8 mL per ingestible device. Animals in Group 4 received intra-cecally an ingestible device containing tacrolimus at 2 mg in 0.8 mL per ingestible device. Animals in Group 5 received intra-cecally an ingestible device containing tacrolimus at 4 mg in 0.8 mL per ingestible device. To control for potential confounding effects of the surgery, all groups fast on Day −11 at least 24 hr before being subjected to anesthesia followed by surgical placements of a cecal port by a veterinary surgeon at Day −10. All animals were fasted for at least 12 hr prior to dosing on Day 1. Animals were dosed via either intra-cecal dosing (IC) or oral dosing (PO) at Day 1 (between 6-8 p.m.). All animals resumed feeding at approximately 4 hours after dose (11-12 p.m. after dosing).
Animals in Group 1 (Vehicle Control) were administered a single intra-cecal ingestible device containing 0.8 mL Vehicle solution (80% alcohol, 20% castor oil (HCO-60) on Day 1. On Day −10 the animals were anesthetized, and a veterinary surgeon surgically placed an intra-cecal port in each animal. On Day 1, each animal was placed into a sling then a single intra-cecal ingestible device containing 0.8 mL vehicle solution (80% alcohol, 20% castor oil (HCO-60)) is introduced by the veterinary surgeon into the cecum via the cecal port in each animal. Following ingestible device placement, the animals were removed from the slings and placed back into their pens with water. All animals resumed feeding at approximately 4 hours after dose. […] A total of 60 samples were collected.
Approximately 200˜400 mg of rectal content were collected, if available, with a fecal swab (Copan Diagnostics Nylon Flocked Dry Swabs, 502CS01). The fecal swab was pre-weighed and weighed after collection in the collection tube (Sterile Tube and Cap No Media, PFPM913S), and the sample weight was recorded. The fecal swab was broken via the breakpoint, and was stored in the collection tube, and immediately frozen at −70° C. […] Immediately following euthanasia, tissue was collected.
For tissue necropsy, small intestine fluid and cecal fluid were collected separately from all the animals into two separate square plastic bottles, and stored at −20° C. The length and diameter of the cecum and the colon was measured from one animal in each group and recorded for reference. Tissues were collected for pharmacokinetic analyses and include mesenteric lymph nodes, a Peyer's Patch, and five gastrointestinal sections, including cecum, proximal colon, transverse colon, distal colon, and rectum. All samples were weighed, and the tissue sample weights were recorded. In each of the five gastrointestinal sections, tissue samples were collected in three different areas where the mucosal surface was visible and not covered by luminal content by using an 8.0-mm punch biopsy tool. Around 3 grams of the total punched sample were collected into a pre-weighed 15-mL conical tube, and the tissue weight was recorded. Three mesenteric lymph nodes were collected from different areas and weighed. At least one Peyer's Patch was collected and weighed.
Luminal contents were collected for pharmacokinetic analyses from the surface of the tissue from each of five gastrointestinal sections: cecum, proximal colon, transverse colon, distal colon, and rectum (total of 75).

in vivo = assay: in vivo
Description: The primary objective of this study was to study the pharmacokinetics of oral versus intra-cecal administration of tacrolimus in normal Yorkshire-Cross farm swine.
This study compares the effects of administration of: a single intra-cecal administration of a device containing 0.8 mL sterile vehicle solution (80% alcohol, 20% castor oil (HCO-60)); a single oral dose of tacrolimus at 0.09 mg/kg (in sterile vehicle solution); and a single intra-cecal administration of a device containing either 0.02 mg/kg (in sterile vehicle solution), 0.04 mg/kg (in sterile vehicle solution), or 0.09 mg/kg (in sterile vehicle solution).
This study employed five groups of three female swine weighing approximately 45 to 50 kg at study start. Swine were randomly placed into animal rooms/pens as they are transferred from the delivery vehicle without regard to group. Group numbers were assigned to the rooms in order of room number. No further randomization procedure was employed.
Animals in Group 1 received intra-cecally a device containing a vehicle solution (80% alcohol, 20% HCO-60). Animals in Group 2 received orally a liquid formulation of tacrolimus at 0.09 mg/kg per animal. Animals in Group 3 received intra-cecally a device containing tacrolimus at 0.02 mg/kg per device. Animals in Group 4 received intra-cecally a device containing tacrolimus 0.04 mg/kg per device. Animals in Group 5 received intra-cecally a device containing tacrolimus 0.09 mg/kg per device.

[2] = female, Yorkshire-Cross, pig, in vivo, 0.02 mg/kg
[3] = female, Yorkshire-Cross, pig, in vivo, 0.09 mg/kg

With C=CC[C@@H]1/C=C(\C)C[C@H](C)C[C@H](OC)[C@H]2O[C@@](O)(C(=O)C(=O)N3CCCC[C@H]3C(=O)O[C@H](/C(C)=C/[C@@H]3CC[C@@H](O)[C@H](OC)C3)[C@H](C)[C@@H](O)CC1=O)[C@H](C)C[C@@H]2OC [tacrolimus] the Cmax ([1]; high (0.09 mg/kg) dose (first value)) was 9.2 ± 3.3 ng/mL, the Cmax ([1]; moderate (0.04 mg/kg) dose) was 21.8 ± 4.73 ng/mL and the “luminal content (spiral, transverse, and distal colon) concentrations” value [1] was “Significantly higher”. For the same compound, the “mean concentration of tacrolimus in the cecum tissue and the proximate colon tissue” value [1] was “higher”, the “tissue (spiral and transverse colon) concentrations” value [1] was “Significantly higher” and the “level of tacrolimus in tissue” value ([1]; po) was “No measurable level”. The AUC (in vivo; female, Yorkshire-Cross, pig, 0.02 mg/kg) was 15.3 ± 2.36 ng·h/mL, the AUC (in vivo; female, Yorkshire-Cross, pig, 0.04 mg/kg) was 51.4 ± 4.04 ng·h/mL and the AUC(0-t) (in vivo; [2]) was 15.3 ng·h/mL. For the same compound, the Cmax (in vivo; [2]) was 2.39 ± 0.57 ng/mL, the AUC(0-t) (in vivo; female, Yorkshire-Cross, pig, in vivo, 0.04 mg/kg) was 51.4 ng·h/mL and the AUC (in vivo; [3]) was 130 ± 7.83 ng·h/mL. For the same compound, the AUC(0-t) (in vivo; [3]) was 130 ng·h/mL, the AUC(0-t) (in vivo; female, Yorkshire-Cross, pig, in vivo, po, 0.09 mg/kg) was 16.8 ng·h/mL and the AUC (in vivo; female, Yorkshire-Cross, pig, po, 0.09 mg/kg) was 16.8 ± 3.64 ng·h/mL. For the same compound, the concentration at 12 h (in vivo; female, Yorkshire-Cross, pig, po, 0.09 mg/kg, Trough (12 hr)) was 0.568 ± 0.291 ng/mL, the Kp at 12 h (in vivo; female, Yorkshire-Cross, swine, po, 0.09 mg/kg) was 0 and the “Ratio Tissue (mean) (ng/g)/ Trough(12 hr)(ng/ml)” value (in vivo; female, Yorkshire-Cross, swine, po, 0.09 mg/kg, 12 h) was 0. The “mean concentration and AUC0-12 hours of tacrolimus in the blood” value (in vivo; po, 0.09 mg/kg) was “higher”.
